Results reported in ChEMBL document CHEMBL1151149, “Antineoplastic agents, 107. Isolation of acteoside and isoacteoside from Castilleja linariaefolia” (1990).
In brackets after ≈: the same amount, converted by molar mass.

System: P388
Experiment: Cytotoxicity against mouse P388 cells
Type: functional
Details: read-out: ED50 (the source's name)

Row | SMILES | EC50 [µg/mL]
1 | C[C@@H]1O[C@@H](O[C@@H]2[C@@H](O)[C@H](OCCc3ccc(O)c(O)c3)O[C@H](COC(=O)/C=C/c3ccc(O)c(O)c3)[C@H]2O)[C@H](O)[C@H](O)[C@H]1O [ISOACTEOSIDE] | 10 (≈ 16 µM)
2 | C[C@@H]1O[C@@H](O[C@@H]2[C@@H](O)[C@H](OCCc3ccc(O)c(O)c3)O[C@H](CO)[C@H]2OC(=O)/C=C/c2ccc(O)c(O)c2)[C@H](O)[C@H](O)[C@H]1O [ACETOSIDE] | 2.6 (≈ 4.16 µM)
